The values below are quoted from earlier work in patent US20250009664A1, “DOSAGE FORM FOR INTRA-[…] INJECTION […] USE IN THE TREATMENT OF CRYSTAL-AND NON-CRYSTAL […] IN[…]” (priority 2021, published 2025).

Each structure is given as a SMILES string.

The conditions of this data set: literature.

Consider `COc1cc2c(c(OC)c1OC)-c1ccc(OC)c(=O)cc1[C@@H](NC(C)=O)CC2` [colchicine, N-[(7S)-1,2,3,10-tetramethoxy-9-oxo-6,7-dihydro-5H-benzo[a]heptalen-7-yl]acetamide], for which the lethal dose is 0.8 mg/kg and the toxicity limit is recorded as 0.1 mg/kg.
